Measurements: patent publication US10766869B2, “Triazoles for the treatment of demyelinating dieases” (Vertex Pharmaceuticals Incorporated, priority 2015, dated 2020)
Like-named read-outs stand apart in the source and are kept apart here.

System: primary rat mixed cortical cells
Experiment: In vitro myelination assay (MBP positive myelin strands, fold myelin pixels above background)
Type: cell-based
Conditions: Rattus norvegicus; for fold induction at 1 µM: 1.0 μM compound; for fold induction at 10 µM: 10.0 μM compound
How it was run: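 P1 rat mixed cortical cultures (neurons, OPCs, oligodendrocytes, astrocytes, microglia) grown 14 days at 37 °C with compound, half-medium refreshed with compound on days 6 and 10. Fixed cells stained for MBP; MBP-positive myelin strand pixels per well quantified by automated imaging, reported as fold over no-compound baseline at 1.0 and 10.0 μM.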

[1] = relative to baseline of no added compound, read-out: Fold myelin pixels above background
[2] = relative to baseline of no added compound, read-out: Fold myelin pixels above background, 1.0 μM
[3] = relative to baseline of no added compound, read-out: Fold myelin pixels above background, 10.0 μM
[4] = read-out: Fold myelin pixels above background relative to baseline of no added compound

| SMILES | fold induction at 1 µM [1] | fold induction at 10 µM [1] | fold induction at 1 µM [4] | fold induction at 10 µM [4] | other results |
| --- | --- | --- | --- | --- | --- |
| CC1(N2CCN(c3cc(C(F)F)cc(Nc4ncn(-c5cc(F)cc(F)c5)n4)n3)CC2)COC1 [Compound 716, 4-(difluoromethyl)-N-[1-(3,5-difluorophenyl)-1,2,4-triazol-3-yl]-6-[4-(3-methyloxetan-3-yl)piperazin-1-yl]pyridin-2-amine] | 1 to 10 | 100 to 1000 | – | – | – |
| CC(C)Oc1cc(F)cc(-n2cnc(Nc3cc(C4CC4)cc(N4CCN(C5COC5)CC4)c3)n2)c1 [Compound 285, N-[3-cyclopropyl-5-[4-(oxetan-3-yl)piperazin-1-yl]phenyl]-1-(3-fluoro-5-isopropoxy-phenyl)-1,2,4-triazol-3-amine] | – | – | – | – | fold induction at 1 µM [2]: 1 to 10; fold induction at 10 µM [3]: 10 to 100 |
| Cc1cc(Nc2ncn(-c3cc(F)cc(F)c3)n2)cc(N2CC(N3CCOC4(CC4)C3)C2)c1 [Compound 586, 1-(3,5-difluorophenyl)-N-[3-methyl-5-[3-(4-oxa-7-azaspiro[2.5]octan-7-yl)azetidin-1-yl]phenyl]-1,2,4-triazol-3-amine] | 10 to 100 | 10 to 100 | – | – | – |
| Cc1cc(Nc2ncn(-c3cc(F)cc(F)c3)n2)cc(N2CC(C)C(N3CCOCC3)C2)c1 (centres unmarked) [Compound 871, 1-(3,5-difluorophenyl)-N-[3-methyl-5-(3-methyl-4-morpholino-pyrrolidin-1-yl)phenyl]-1,2,4-triazol-3-amine] | – | – | 1 to 10 | 1 to 10 | – |
| CC(=O)N1CC(Oc2cc(C)c(C)c(Nc3ncn(-c4cc(F)cc(F)c4)n3)c2)C1 [Compound 971, 1-[3-[3-[[1-(3,5-difluorophenyl)-1,2,4-triazol-3-yl]amino]-4,5-dimethyl-phenoxy]azetidin-1-yl]ethanone] | – | – | 1 to 10 | 1 to 10 | – |
| Cc1c(Nc2ncn(-c3cc(F)cc(F)c3)n2)cc(N2CC(N3CCOCC3)C2)cc1OC(C)C [Compound 641, 1-(3,5-difluorophenyl)-N-[3-isopropoxy-2-methyl-5-(3-morpholinoazetidin-1-yl)phenyl]-1,2,4-triazol-3-amine] | 10 to 100 | 1 to 10 | – | – | – |
| Cc1cc(Nc2ncn(-c3cc(F)cc(F)c3)n2)cc(N2CCOC2=O)c1 [Compound 517, 3-[3-[[1-(3,5-difluorophenyl)-1,2,4-triazol-3-yl]amino]-5-methyl-phenyl]oxazolidin-2-one] | 10 to 100 | 10 to 100 | – | – | – |
| CCC(O)CN1CCN(c2cc(C)cc(Nc3ncn(-c4cc(F)cc(F)c4)n3)c2)CC1 (centres unmarked) [Compound 957, 1-[4-[3-[[1-(3,5-difluorophenyl)-1,2,4-triazol-3-yl]amino]-5-methyl-phenyl]piperazin-1-yl]butan-2-ol] | – | – | 10 to 100 | ≤ 1 | – |
| Fc1cc(Nc2ncn(-c3cccc(F)c3)n2)cc(N2CCCOCC2)c1 [Compound 166, N-[3-fluoro-5-(1,4-oxazepan-4-yl)phenyl]-1-(3-fluorophenyl)-1,2,4-triazol-3-amine] | – | – | – | – | fold induction at 1 µM [2]: 100 to 1000; fold induction at 10 µM [3]: 10 to 100 |
| CCCc1cc(Nc2ncn(-c3ccc(F)c(F)c3)n2)cc(N2CCN(C3COC3)CC2)c1 [Compound 559, 1-(3,4-difluorophenyl)-N-[3-[4-(oxetan-3-yl)piperazin-1-yl]-5-propyl-phenyl]-1,2,4-triazol-3-amine] | 100 to 1000 | 10 to 100 | – | – | – |
| Fc1cc(F)cc(-n2cnc(Nc3cc(Br)cc(N4CCOCC4)c3)n2)c1 [Compound 346, N-(3-bromo-5-morpholino-phenyl)-1-(3,5-difluorophenyl)-1,2,4-triazol-3-amine] | – | – | – | – | fold induction at 1 µM [2]: 1000 to 10000; fold induction at 10 µM [3]: 1000 to 10000 |
| Cc1cc(Nc2ncn(-c3ccc(F)c(F)c3)n2)c(F)c(OC2CCOC2)c1 (single isomer, unassigned) [Compound 1009, 1-(3,4-difluorophenyl)-N-(2-fluoro-5-methyl-3-tetrahydrofuran-3-yloxy-phenyl)-1,2,4-triazol-3-amine] | – | – | 10 to 100 | 1 to 10 | – |
| CC(C)c1cc(Nc2ncn(-c3cccc(F)c3)n2)cc(N2CCN(C3COC3)CC2)c1 [Compound 523, 1-(3-fluorophenyl)-N-[3-isopropyl-5-[4-(oxetan-3-yl)piperazin-1-yl]phenyl]-1,2,4-triazol-3-amine] | 100 to 1000 | ≤ 1 | – | – | – |
| Cc1cc(Nc2ncn(-c3ccccn3)n2)cc(C2COC2)c1 [Compound 404, N-[3-methyl-5-(oxetan-3-yl)phenyl]-1-(2-pyridyl)-1,2,4-triazol-3-amine] | 100 to 1000 | 100 to 1000 | – | – | – |
| Cc1cc(Nc2ncn(-c3cc(F)cc(F)c3)n2)cc(N2CCN(CCOC(C)C)CC2)c1 [Compound 1005, 1-(3,5-difluorophenyl)-N-[3-[4-(2-isopropoxyethyl)piperazin-1-yl]-5-methyl-phenyl]-1,2,4-triazol-3-amine] | – | – | 1 to 10 | ≤ 1 | – |
| Cc1cc(Nc2ncn(-c3cc(F)cc(F)c3)n2)cc(N2CC(N3CCC(F)CC3)C2)c1 [Compound 617, 1-(3,5-difluorophenyl)-N-[3-[3-(4-fluoro-1-piperidyl)azetidin-1-yl]-5-methyl-phenyl]-1,2,4-triazol-3-amine] | 10 to 100 | 10 to 100 | – | – | – |
| Cc1cc(NCC2COCCO2)cc(Nc2ncn(-c3cc(F)cc(F)c3)n2)c1 (centres unmarked) [Compound 932, N1-[1-(3,5-difluorophenyl)-1,2,4-triazol-3-yl]-N3-(1,4-dioxan-2-ylmethyl)-5-methyl-benzene-1,3-diamine] | – | – | 1 to 10 | ≤ 1 | – |
| Cc1cc(Nc2ncn(-c3cc(F)cc(F)c3)n2)cc(C2(F)CCN(C3COC3)CC2)c1 [Compound 515, 1-(3,5-difluorophenyl)-N-[3-[4-fluoro-1-(oxetan-3-yl)-4-piperidyl]-5-methyl-phenyl]-1,2,4-triazol-3-amine] | ≤ 1 | 1 to 10 | – | – | – |
| Cc1cc(Nc2ncn(-c3cc(F)cc(F)c3)n2)cc(OCc2ccn(C)n2)c1 [Compound 605, 1-(3,5-difluorophenyl)-N-[3-methyl-5-[(1-methylpyrazol-3-yl)methoxy]phenyl]-1,2,4-triazol-3-amine] | 10 to 100 | 10 to 100 | – | – | – |
| Cc1cc(Nc2ncn(-c3cc(F)c(C#N)cc3F)n2)cc(N2CCN(C3COC3)CC2)c1 [Compound 66, 2,5-difluoro-4-[3-[3-methyl-5-[4-(oxetan-3-yl)piperazin-1-yl]anilino]-1,2,4-triazol-1-yl]benzonitrile] | – | – | – | – | fold induction at 1 µM [2]: 10 to 100; fold induction at 10 µM [3]: 10 to 100 |
| Cc1cc(Nc2ncn(-c3cc(F)cc(F)c3)n2)cc(N2CCC3(CCO3)C2)c1 (centres unmarked) [Compound 901, 1-(3,5-difluorophenyl)-N-[3-methyl-5-(1-oxa-7-azaspiro[3.4]octan-7-yl)phenyl]-1,2,4-triazol-3-amine] | – | – | 1 to 10 | ≤ 1 | – |
| COC[C@H](C)NC(=O)C1CN(c2cc(C)cc(Nc3ncn(-c4cc(F)cc(F)c4)n3)c2)C1 [Compound 584, 1-[3-[[1-(3,5-difluorophenyl)-1,2,4-triazol-3-yl]amino]-5-methyl-phenyl]-N-[(1S)-2-methoxy-1-methyl-ethyl]azetidine-3-carboxamide] | 10 to 100 | 1 to 10 | – | – | – |
